Each compound was assayed against Glucose-6-phosphate 1-dehydrogenase (Homo sapiens, UniProt P11413) (assay: Inhibition of human recombinant N-terminal His tagged G6PD expressed in Escherichia coli JM109 (DE3) cells assessed as production of NADPH after 30 mins by Amplite fluorimetric assay).
Glucose-6-phosphate 1-dehydrogenase, sequence (P11413 whole entry): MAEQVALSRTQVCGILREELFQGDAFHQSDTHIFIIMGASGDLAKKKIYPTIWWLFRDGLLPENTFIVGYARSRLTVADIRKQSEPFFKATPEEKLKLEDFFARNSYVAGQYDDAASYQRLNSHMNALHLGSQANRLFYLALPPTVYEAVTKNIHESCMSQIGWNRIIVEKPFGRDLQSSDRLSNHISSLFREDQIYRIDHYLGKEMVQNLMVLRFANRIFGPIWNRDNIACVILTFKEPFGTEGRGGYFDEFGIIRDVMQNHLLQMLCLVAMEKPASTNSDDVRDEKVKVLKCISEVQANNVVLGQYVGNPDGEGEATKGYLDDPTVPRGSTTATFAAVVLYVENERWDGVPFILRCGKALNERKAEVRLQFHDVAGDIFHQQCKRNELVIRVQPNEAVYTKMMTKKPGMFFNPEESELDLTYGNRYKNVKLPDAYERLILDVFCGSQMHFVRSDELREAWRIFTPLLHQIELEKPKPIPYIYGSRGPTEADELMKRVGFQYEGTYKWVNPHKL

Structure (SMILES)	IC50 [µM]
CCNC(=O)NC1CC[C@@]2(C)[C@@H](CC[C@@H]3[C@@H]2CC[C@]2(C)[C@@H](C(=O)CO)CC[C@@H]32)C1 (some centres undefined)	34.9
C[C@]12CC[C@H](O)C[C@@H]1CC[C@@H]1[C@@H]2CC[C@]2(C)C(=O)[C@H](Br)C[C@@H]12 [16.ALPHA.-BROMOEPIANDROSTERONE]	20.8
CC(=O)[C@H]1CC[C@H]2[C@@H]3CC=C4C[C@@H](O)CC[C@]4(C)[C@H]3CC[C@]12C [PREGNENOLONE]	81.4
CC(=O)[C@@]12O[C@@H]1C[C@H]1[C@@H]3CC[C@H]4C[C@@H](O)CC[C@]4(C)[C@H]3CC[C@@]12C	> 200
C[C@]12CC[C@H](O)C[C@@H]1CC[C@@H]1[C@@H]2CC[C@@]2(C)[C@H]1CC[C@@]21CCO1	> 200
C[C@]12CC[C@H](O)C[C@@H]1CC[C@@H]1[C@@H]2CC[C@@]2(C)[C@H]1CC[C@@]21CO1	> 200
CC(=O)N[C@H]1CC[C@@]2(C)[C@@H](CC[C@@H]3[C@@H]2CC[C@]2(C)C(=O)CC[C@@H]32)C1	128
C[C@]12CC[C@H](O)C[C@@H]1CC[C@@H]1[C@@H]2CC[C@@]2(C)[C@H]1CC[C@]2(O)C(=O)CO	5.2
CC(=O)[C@H]1CC[C@H]2[C@@H]3CC[C@H]4C[C@H](O)CC[C@]4(C)[C@H]3CC[C@]12C [BREXANOLONE]	66
C[C@]12CC[C@H](O)C[C@@H]1CC[C@@H]1[C@@H]2CC[C@]2(C)[C@@H](C(=O)CCl)CC[C@@H]12	9.3
C[C@]12CC[C@@H](N)C[C@@H]1CC[C@@H]1[C@@H]2CC[C@]2(C)C(=O)CC[C@@H]12	> 200
C[C@]12CC[C@H](NS(C)(=O)=O)C[C@@H]1CC[C@@H]1[C@@H]2CC[C@]2(C)C(=O)CC[C@@H]12	6.6
C[C@]12CC[C@H](O)C[C@@H]1CC[C@@H]1[C@@H]2CC[C@]2(C)C(=O)CC[C@@H]12 [EPIANDROSTERONE]	9.4
C[C@]12CCCC[C@@H]1CC[C@@H]1[C@@H]2CC[C@]2(C)C(=O)CC[C@@H]12	> 200
CC(=O)[C@H]1CC[C@H]2[C@@H]3CC[C@H]4C[C@@H](NS(=O)(=O)N(C)C)CC[C@]4(C)[C@H]3CC[C@]12C	37.8
C[C@]12CC[C@H](O)CC1=CC[C@@H]1[C@@H]2CC[C@@]2(C)[C@H]1CC[C@@]21CCO1	> 200
C[C@]12CC[C@@H](NS(C)(=O)=O)C[C@@H]1CC[C@@H]1[C@@H]2CC[C@]2(C)C(=O)CC[C@@H]12	> 200
C[C@]12CC[C@H](N)C[C@@H]1CC[C@@H]1[C@@H]2CC[C@]2(C)C(=O)CC[C@@H]12	> 200
CCNC(=O)N[C@@H]1CC[C@@]2(C)[C@@H](CC[C@@H]3[C@@H]2CC[C@]2(C)C(=O)CC[C@@H]32)C1	> 200
C[C@]12CC[C@H](NC(N)=O)C[C@@H]1CC[C@@H]1[C@@H]2CC[C@]2(C)C(=O)CC[C@@H]12	5
CNC(=O)N[C@H]1CC[C@@]2(C)[C@@H](CC[C@@H]3[C@@H]2CC[C@]2(C)C(=O)CC[C@@H]32)C1	12.2
C[C@]12CC[C@H](O)CC1=CC[C@@H]1[C@@H]2CC[C@@]2(C)[C@H]1CC[C@@]21CO1	> 200
C[C@]12CC[C@H](NS(=O)(=O)c3ccccc3)C[C@@H]1CC[C@@H]1[C@@H]2CC[C@]2(C)C(=O)CC[C@@H]12	9.9
C[C@]12CC[C@H](O)C[C@@H]1CC[C@@H]1[C@@H]2CC[C@]2(C)[C@@H](C(=O)CBr)CC[C@@H]12	2.5
COC(=O)N[C@H]1CC[C@@]2(C)[C@@H](CC[C@@H]3[C@@H]2CC[C@]2(C)[C@@H](C(=O)CO)CC[C@@H]32)C1	41.6

Structure (SMILES)	IC50 [µM]
CC(=O)C[C@H]1CC[C@H]2[C@@H]3CC[C@H]4C[C@@H](O)CC[C@]4(C)[C@H]3CC[C@]12C	> 200
CCCCNC(=O)N[C@H]1CC[C@@]2(C)[C@@H](CC[C@@H]3[C@@H]2CC[C@]2(C)C(=O)CC[C@@H]32)C1	1.7
C[C@]12CC[C@H](O)C[C@@H]1CC[C@H]1[C@@H]3CC[C@H](C(=O)CO)[C@@]3(C)CC(=O)[C@@H]12	6.3
CC(=O)[C@H]1CC[C@H]2[C@@H]3CC[C@H]4C[C@@H](O)CC[C@]4(C)[C@H]3C(=O)C[C@]12C	15.8
CO[C@]1(C(C)=O)CC[C@H]2[C@@H]3CC[C@H]4C[C@@H](O)CC[C@]4(C)[C@H]3CC[C@@]21C	> 200
CC(=O)[C@H]1CC[C@H]2[C@@H]3CC[C@H]4C[C@@H](O)CC[C@]4(C)[C@H]3CC[C@]12C [SEPRANOLONE]	4.3
C[C@]12CC[C@H](O)CC1=CC[C@@H]1[C@@H]2CC[C@]2(C)C(=O)[C@H](O)C[C@@H]12	15.8
CC(=O)[C@H]1CC[C@H]2[C@@H]3CC[C@H]4C[C@@H](N)CC[C@]4(C)[C@H]3CC[C@]12C	> 200
CCS(=O)(=O)N[C@H]1CC[C@@]2(C)[C@@H](CC[C@@H]3[C@@H]2CC[C@]2(C)C(=O)CC[C@@H]32)C1	70.5
CC(=O)[C@H]1CC[C@H]2[C@@H]3CC[C@H]4C[C@@H](NC(N)=O)CC[C@]4(C)[C@H]3CC[C@]12C	> 100
CC(=O)OCC(=O)[C@H]1CC[C@H]2[C@@H]3CC[C@H]4C[C@@H](O)CC[C@]4(C)[C@H]3CC[C@]12C	> 200
COC(=O)N[C@H]1CC[C@@]2(C)[C@@H](CC[C@@H]3[C@@H]2CC[C@]2(C)[C@@H](C(C)=O)CC[C@@H]32)C1	> 200
C[C@]12CC[C@H](O)C[C@@H]1CC[C@@H]1[C@@H]2CC[C@]2(C)/C(=N/O)CC[C@@H]12	> 200
CC(=O)[C@H]1CC[C@H]2[C@@H]3CC[C@H]4C[C@@H](NS(=O)(=O)c5ccccc5)CC[C@]4(C)[C@H]3CC[C@]12C	20.3
C/C(=N/O)[C@H]1CC[C@H]2[C@@H]3CC[C@H]4C[C@@H](O)CC[C@]4(C)[C@H]3CC[C@]12C	> 200
CCS(=O)(=O)N[C@H]1CC[C@@]2(C)[C@@H](CC[C@@H]3[C@@H]2CC[C@]2(C)[C@@H](C(C)=O)CC[C@@H]32)C1	11
C[C@]12CC[C@@H](O)C[C@@H]1CC[C@@H]1[C@@H]2CC[C@]2(C)C(=O)CC[C@@H]12 [ANDROSTERONE]	> 200
C[C@]12CC[C@@H](NS(N)(=O)=O)C[C@@H]1CC[C@@H]1[C@@H]2CC[C@]2(C)C(=O)CC[C@@H]12	> 200
C[C@]12CC[C@@H](O)C[C@@H]1CC[C@@H]1[C@@H]2CC[C@]2(C)[C@@H](C(=O)CO)CC[C@@H]12	31.6
C[C@]12CC[C@H]3[C@@H](CC=C4C[C@@H](O)CC[C@@]43C)[C@@H]1CC[C@@H]2C(=O)CO	5.3
CN(C)C(=O)N[C@H]1CC[C@@]2(C)[C@@H](CC[C@@H]3[C@@H]2CC[C@]2(C)C(=O)CC[C@@H]32)C1	> 200
CC(=O)N[C@H]1CC[C@@]2(C)[C@@H](CC[C@@H]3[C@@H]2CC[C@]2(C)[C@@H](C(C)=O)CC[C@@H]32)C1	> 200
CC(=O)[C@H]1CC[C@H]2[C@@H]3CC[C@H]4C[C@@H](NC(=O)N(C)C)CC[C@]4(C)[C@H]3CC[C@]12C	> 200
CC(=O)[C@@]1(O)CC[C@H]2[C@@H]3CC[C@H]4C[C@@H](O)CC[C@]4(C)[C@H]3C(=O)C[C@@]21C	47
